Reference: patent US9296704B2, “Substituted pyrimidines as protein kinase inhibitors” (CELGENE AVILOMICS RESEARCH, INC., priority 2007, dated 2016)

Tests used:
JAK3 = molecular target: T1, JAK3 (Homo sapiens, UniProt P52333); test: Omnia assay for potency against JAK3; assay type: biochemical; details: read-out: JAK3 Inhibition
T1 sequence (P52333 1-1124): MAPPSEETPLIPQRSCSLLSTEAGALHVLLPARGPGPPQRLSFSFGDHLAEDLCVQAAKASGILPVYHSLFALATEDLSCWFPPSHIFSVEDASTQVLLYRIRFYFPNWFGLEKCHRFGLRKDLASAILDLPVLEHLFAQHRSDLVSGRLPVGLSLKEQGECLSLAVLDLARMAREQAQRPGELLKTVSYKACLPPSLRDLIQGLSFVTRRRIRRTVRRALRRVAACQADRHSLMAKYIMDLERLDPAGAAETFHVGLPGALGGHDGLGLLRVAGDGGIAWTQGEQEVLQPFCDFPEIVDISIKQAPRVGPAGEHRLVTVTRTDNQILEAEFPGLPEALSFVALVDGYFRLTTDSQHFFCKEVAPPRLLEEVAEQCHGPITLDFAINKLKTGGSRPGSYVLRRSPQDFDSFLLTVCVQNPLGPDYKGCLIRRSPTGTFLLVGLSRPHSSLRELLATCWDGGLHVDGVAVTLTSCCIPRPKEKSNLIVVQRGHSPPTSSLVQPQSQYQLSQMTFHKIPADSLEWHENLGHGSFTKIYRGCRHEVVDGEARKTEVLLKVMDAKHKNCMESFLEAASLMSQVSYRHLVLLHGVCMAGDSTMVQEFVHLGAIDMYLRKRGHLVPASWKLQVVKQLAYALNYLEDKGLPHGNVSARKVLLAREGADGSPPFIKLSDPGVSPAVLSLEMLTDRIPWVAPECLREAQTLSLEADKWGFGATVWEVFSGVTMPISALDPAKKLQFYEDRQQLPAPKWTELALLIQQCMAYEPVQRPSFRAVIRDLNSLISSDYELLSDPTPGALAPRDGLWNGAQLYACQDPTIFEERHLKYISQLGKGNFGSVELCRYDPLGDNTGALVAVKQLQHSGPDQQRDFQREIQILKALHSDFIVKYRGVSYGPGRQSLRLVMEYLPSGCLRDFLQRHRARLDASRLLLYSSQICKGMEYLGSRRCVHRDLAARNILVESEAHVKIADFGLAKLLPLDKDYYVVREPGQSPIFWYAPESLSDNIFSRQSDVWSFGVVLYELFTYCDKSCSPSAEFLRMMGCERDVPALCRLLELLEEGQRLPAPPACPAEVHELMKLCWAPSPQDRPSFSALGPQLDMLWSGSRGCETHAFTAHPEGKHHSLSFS
Method in brief: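 Continuous-read Omnia kinase assay with 5 nM JAK3, 5 μM ATP (near apparent Km) and 5 μM Y12-Sox peptide in Tris pH 7.5/MgCl2 buffer; enzyme pre-incubated with compound 30 min at 27 °C. Fluorescence (ex360/em485) read over 60 min; initial velocities fitted against inhibitor concentration to give IC50.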

ITK = molecular target: T2, ITK (Homo sapiens, UniProt Q08881); test: Omnia assay for potency against ITK; assay type: biochemical; details: read-out: ITK inhibition
T2 sequence (Q08881 1-620): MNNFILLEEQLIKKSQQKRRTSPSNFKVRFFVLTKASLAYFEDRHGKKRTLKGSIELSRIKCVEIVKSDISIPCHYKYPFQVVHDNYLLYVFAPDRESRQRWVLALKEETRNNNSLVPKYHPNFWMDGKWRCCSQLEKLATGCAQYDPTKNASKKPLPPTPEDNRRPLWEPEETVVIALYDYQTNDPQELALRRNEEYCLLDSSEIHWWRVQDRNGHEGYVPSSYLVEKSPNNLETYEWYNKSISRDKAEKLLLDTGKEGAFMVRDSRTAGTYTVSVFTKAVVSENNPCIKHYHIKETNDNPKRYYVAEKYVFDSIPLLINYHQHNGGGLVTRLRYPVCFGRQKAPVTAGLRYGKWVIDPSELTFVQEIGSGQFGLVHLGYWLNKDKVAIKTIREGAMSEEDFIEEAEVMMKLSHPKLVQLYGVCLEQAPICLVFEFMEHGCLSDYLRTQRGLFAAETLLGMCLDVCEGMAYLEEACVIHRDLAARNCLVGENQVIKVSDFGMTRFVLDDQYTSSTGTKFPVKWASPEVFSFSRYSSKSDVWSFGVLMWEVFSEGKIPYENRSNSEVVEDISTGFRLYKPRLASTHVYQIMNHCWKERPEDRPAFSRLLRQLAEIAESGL
Source text: The protocol below describes continuous-read kinase assays to measure inherent potency of compounds against active forms of EGFR (WT) and EGFR (T790M/L858R) enzymes. The mechanics of the assay platform are best described by the vendor (Invitrogen, Carlsbad, Calif.) on their website at the following URL: http://www.invitrogen.com/content.cfm?pageid=11338 or http://www.invitrogen.com/site/us/en/home/Products-and-Services/Applications/Drug-Discovery/Target-and-Lead-Identification-and-Validation/KinaseBiology/KB-Misc/Biochemical-Assays/Omnia-Kinase-Assays.html.
Briefly, 10× stocks of EGFR-WT (PV3872) from Invitrogen and EGFR-T790M/L858R (40350) from BPS Bioscience, San Diego, Calif., 1.13×ATP (AS001A) and appropriate Tyr-Sox conjugated peptide substrates (KCZI001) were prepared in 1× kinase reaction buffer consisting of 20 mM Tris, pH 7.5, 5 mM MgCl2, 1 mM EGTA, 5 mM β-glycerophosphate, 5% glycerol (10× stock, KB002A) and 0.2 mM DTT (DS001A). 5 μL of each enzyme were pre-incubated in a Corning (#3574) 384-well, white, non-binding surface microtiter plate (Corning, NY) for 30 min. at 27° C. with a 0.5 μL volume of 50% DMSO and serially diluted compounds prepared in 50% DMSO. Kinase reactions were started with the addition of 45 μL of the ATP/Tyr-Sox peptide substrate mix and monitored every 30-90 seconds for 60 minutes at λex360/λem485 in a Synergy^4 plate reader from BioTek (Winooski, Vt.). At the conclusion of each assay, progress curves from each well were examined for linear reaction kinetics and fit statistics (R^2, 95% confidence interval, absolute sum of squares). Initial velocity (0 minutes to ˜30 minutes) from each reaction was determined from the slope of a plot of relative fluorescence units vs time (minutes) and then plotted against inhibitor concentration to estimate IC50 from log [Inhibitor] vs Response, Variable Slope model in GraphPad Prism from GraphPad Software (San Diego, Calif.).
This example describes continuous-read kinase assays to measure inherent potency of compound against active forms of ITK enzymes as described in Example 10 above except that the modified ITK-optimized reagent conditions are: • [ITK]=10 nM, [ATP]=25 μM, [Y6-Sox]=10 μM (ATP KMapp=33 μM).

Row | Compound | IC50 (JAK3) [nM] | IC50 (ITK) [nM]
1 | C=CC(=O)Nc1cccc(Nc2cc(Nc3cccc(Br)c3)ncn2)c1 [I-1, N-{3-[6-(3-bromophenylamino)-pyrimidin-4-ylamino]-phenyl}-2-propenamide] | ≤ 10 | 
2 | C=CC(=O)Nc1cccc(Nc2cc(Nc3ccc(Oc4ccccc4)cc3)ncn2)c1 [I-13, N-{3-[6-(4-phenoxyphenylamino)-pyrimidin-4-ylamino]phenyl}-2 propenamide] | 100 to 1000 | 1000 to 10000
3 | C=CC(=O)Nc1cccc(Nc2cc(Nc3ccc(Oc4ccccc4)cc3)ncn2)n1 [I-63] | 10 to 100 | 1000 to 10000
4 | CN(C)C/C=C/C(=O)Nc1cccc(Nc2cc(Nc3ccc(Oc4ccccc4)cc3)ncn2)n1 [I-64, (E)-4-(dimethylamino)-N-(6-(6-(4-phenoxyphenylamino)pyrimidin-4-ylamino)pyridine-2-yl)but-2-enamide] | ≤ 10 | 10 to 100
5 | C=CC(=O)Nc1cccc(Nc2cc(Oc3cccc(C)c3)ncn2)n1 [I-65] | ≤ 10 | 10 to 100
6 | C=CC(=O)Nc1cccc(Nc2cc(Oc3ccc(Oc4ccccc4)cc3)ncn2)n1 [I-66] | 100 to 1000 | 1000 to 10000
7 | C=CC(=O)N(C)c1cccc(Nc2cc(Nc3ccc(Oc4ccccc4)cc3)ncn2)n1 [I-78, N-methyl-N-(6-(6-(4-phenoxyphenylamino)pyrimidin-4-ylamino)pyridin-2-yl)acrylamide] | ≤ 10 | 10 to 100
8 | CN(C)C/C=C/C(=O)N(C)c1cccc(Nc2cc(Nc3ccc(Oc4ccccc4)cc3)ncn2)n1 [I-79, (E)-4-(dimethylamino)-N-methyl-N-(6-(6-(4-phenoxyphenylamino)pyrimidin-4-ylamino)pyridine-2-yl)but-2-enamide] | ≤ 10 | ≤ 10
9 | Cc1cccc(Oc2cc(Nc3cccc(NC(=O)/C=C/CN(C)C)n3)ncn2)c1 [I-81] | ≤ 10 | 10 to 100
10 | C=CC(=O)Nc1cccc(Nc2cc(Nc3ccccc3)ncn2)n1 [I-94] | ≤ 10 | 10 to 100
